Data published in ChEMBL document CHEMBL3745685, “An appraisal on recent medicinal perspective of curcumin degradant: Dehydrozingerone (DZG)” (Bioorg Med Chem, 2016).
≈ marks a conversion by molar mass, not a printed value.

Key:
[1] = Antioxidant activity assessed as DPPH radical scavenging activity incubated for 20 mins by spectrophotometry analysis; assay type: physicochemical
Brain = test: Antioxidant activity in Wistar rat brain homogenate assessed as inhibition of Fe(II)-induced lipid peroxidation; assay type: functional, tissue-based
[2] = Antioxidant activity assessed as DPPH radical scavenging activity; assay type: physicochemical
Raji [3] = test: Cytotoxicity against human Raji cells expressing EBV-EA assessed as inhibition of TPA-induced EBV-EA activation at 10 molar ratio after 48 hrs by trypan blue staining based immunofluorescence method relative to TPA; assay type: functional
[4] = Antiproliferative activity against human MM1S cells assessed as growth inhibition at 10 uM after 48 hrs by MTT assay relative to control; assay type: functional; details: MM1.S, read-out: GI
[5] = Antiproliferative activity against human RPMI8226 cells assessed as growth inhibition at 10 uM after 48 hrs by MTT assay relative to control; assay type: functional; details: RPMI-8226, 48 h, read-out: GI
[6] = Antiproliferative activity against human U266 cells assessed as growth inhibition at 10 uM after 48 hrs by MTT assay relative to control; assay type: functional; details: U-266, 48 h, read-out: GI
Raji [7] = test: Cytotoxicity against human Raji cells expressing EBV-EA assessed as inhibition of TPA-induced EBV-EA activation after 48 hrs by trypan blue staining based immunofluorescence method relative to TPA; assay type: functional, cell-based
[8] = Potency index, ratio of alpha-tocopherol IC0.2 to compound IC0.2 for antioxidant activity by DPPH assay
NCI/ADR-RES = test: Cytotoxicity against human multidrug resistant NCI/ADR-RES cells overexpressing P-gp assessed as reduction in cell viability by MTT assay; assay type: functional, cell-based
[9] = Cytotoxicity against human OVCAR8 cells assessed as reduction in cell viability by MTT assay; assay type: functional, cell-based; details: OVCAR-8
OVCAR-8 = test: Resistance factor, ratio of IC50 for human multidrug resistant NCI/ADR-RES cells to IC50 for human OVCAR8 cells; assay type: functional
Raji [10] = test: Cytotoxicity against human Raji cells expressing EBV-EA assessed as inhibition of TPA-induced EBV-EA activation at 100 molar ratio after 48 hrs by trypan blue staining based immunofluorescence method relative to TPA; assay type: functional
Penicillium chrysogenum [11] = test: Antifungal activity against Penicillium chrysogenum MTCC 616 assessed as growth inhibition after 5 to 7 days by broth dilution method; assay type: functional
[12] = Antioxidant activity assessed as ABTS free radical scavenging activity; assay type: physicochemical
Rhizoctonia solani = test: Antifungal activity against Rhizoctonia solani Kuhn assessed as growth inhibition after 2 to 3 days by poisoned food method; assay type: functional, organism-based
Aspergillus oryzae [13] = test: Fungicidal activity against Aspergillus oryzae MTCC 262 after 5 to 7 days by agar well diffusion method; assay type: functional
Aspergillus flavus [14] = test: Fungicidal activity against Aspergillus flavus MTCC 277 after 5 to 7 days by agar well diffusion method; assay type: functional
Aspergillus niger [15] = test: Fungicidal activity against Aspergillus niger MTCC 218 after 5 to 7 days by agar well diffusion method; assay type: functional
Aspergillus ochraceus [16] = test: Fungicidal activity against Aspergillus ochraceus MTCC 4643 after 5 to 7 days by agar well diffusion method; assay type: functional
Fusarium oxysporum [17] = test: Fungicidal activity against Fusarium oxysporum MTCC 1755 after 5 to 7 days by agar well diffusion method; assay type: functional
Penicillium chrysogenum [18] = test: Fungicidal activity against Penicillium chrysogenum MTCC 616 after 5 to 7 days by agar well diffusion method; assay type: functional
Aspergillus oryzae [19] = test: Antifungal activity against Aspergillus oryzae MTCC 262 assessed as growth inhibition after 5 to 7 days by broth dilution method; assay type: functional
Aspergillus flavus [20] = test: Antifungal activity against Aspergillus flavus MTCC 277 assessed as growth inhibition after 5 to 7 days by broth dilution method; assay type: functional
Aspergillus niger [21] = test: Antifungal activity against Aspergillus niger MTCC 218 assessed as growth inhibition after 5 to 7 days by broth dilution method; assay type: functional
Aspergillus ochraceus [22] = test: Antifungal activity against Aspergillus ochraceus MTCC 4643 assessed as growth inhibition after 5 to 7 days by broth dilution method; assay type: functional
Fusarium oxysporum [23] = test: Antifungal activity against Fusarium oxysporum MTCC 1755 assessed as growth inhibition after 5 to 7 days by broth dilution method; assay type: functional
Raji [24] = test: Cytotoxicity against human Raji cells expressing EBV-EA assessed as inhibition of TPA-induced EBV-EA activation at 1000 molar ratio after 48 hrs by trypan blue staining based immunofluorescence method relative to TPA; assay type: functional
Rattus norvegicus = test: Antiinflammatory activity in rat assessed as inhibition of carrageenan-induced paw edema relative to control; assay type: functional
Mus musculus = test: Analgesic activity in albino mouse assessed as inhibition of acetic acid-induced writhing response at 1 mmol/kg relative to control; assay type: functional
[25] = Potency index, ratio of ascorbic acid IC0.2 to compound IC0.2 for antioxidant activity by DPPH assay
Spilarctia obliqua = test: Insecticidal activity against third-instar larval stage of Spilosoma obliqua Walker assessed as growth inhibition after 24 hrs by leaf disc method; assay type: functional, organism-based
Raji [26] = test: Cytotoxicity against human Raji cells expressing EBV-EA assessed as inhibition of TPA-induced EBV-EA activation at 500 molar ratio after 48 hrs by trypan blue staining based immunofluorescence method relative to TPA; assay type: functional
Raji [27] = test: Cytotoxicity against human Raji cells expressing EBV-EA assessed as inhibition of TPA-induced EBV-EA activation at 38 molar ratio after 48 hrs by trypan blue staining based immunofluorescence method relative to TPA; assay type: functional

## COc1cc(/C=C/C(C)=O)ccc1OC1OC(CO)C(O)C(O)C1O (stereo not drawn)
[1]
  IC50: 7500 µM

## VITAMIN E
Brain
  IC50: 2.5 µM
[2]
  IC0.2: 8.3 µM

## COc1ccc(/C=C/C(C)=O)c(OCC=C(C)C)c1
Raji [3]
  inhibition (INH): 11%

## COc1cc(/C=C/C(=O)C(=Cc2ccc3c(c2)C(=O)N(C2CCC(=O)NC2=O)C3=O)C(=O)/C=C/c2ccc(O)c(OC)c2)ccc1O (stereo not drawn)
[4]
  inhibition of growth at 10 µM: ≥ 90%
[5]
  inhibition of growth at 10 µM: ≥ 90%
[6]
  inhibition of growth at 10 µM: ≥ 90%

## COc1ccc(/C=C/C(C)=O)cc1OC
Raji [7]
  IC50: 107 molar ratio
[1]
  IC50: 20000 µM

## CC(=O)/C=C/c1cccc(O)c1O
Brain; Rattus norvegicus, Wistar, Brain
  IC50: 6.3 µM
[2]
  IC0.2: 3.2 µM
[8]
  Ratio: 2

## COc1cc(/C=C/C(=O)/C=C/c2nc3c(C)cccc3n2C)ccc1O
NCI/ADR-RES
  IC50: 23.2 µM
[9]
  IC50: 0.7 µM
OVCAR-8
  Ratio IC50: 33.1

## COc1ccc(/C=C/C(C)=O)cc1OCC=C(C)C
Raji [10]
  inhibition (INH): 35%

## COc1cc(/C=C/C(C)=O)ccc1O [DEHYDROZINGERONE]
Penicillium chrysogenum [11]
  MIC: 755 µM (≈ 145 µg/mL)
[12]
  IC50: 8 µM
Raji [7]
  IC50: 95 molar ratio
Rhizoctonia solani
  EC50: 86.5 µg/mL (≈ 0.45 mM)
[1]
  IC50: 300 µM
Aspergillus oryzae [13]
  MFC: 880 µM (≈ 169 µg/mL)
Aspergillus flavus [14]
  MFC: 880 µM (≈ 169 µg/mL)
Aspergillus niger [15]
  MFC: 880 µM (≈ 169 µg/mL)
Aspergillus ochraceus [16]
  MFC: 880 µM (≈ 169 µg/mL)
Fusarium oxysporum [17]
  MFC: 880 µM (≈ 169 µg/mL)
Penicillium chrysogenum [18]
  MFC: 880 µM (≈ 169 µg/mL)
Aspergillus oryzae [19]
  MIC: 755 µM (≈ 145 µg/mL)
Aspergillus flavus [20]
  MIC: 755 µM (≈ 145 µg/mL)
Aspergillus niger [21]
  MIC: 755 µM (≈ 145 µg/mL)
Aspergillus ochraceus [22]
  MIC: 755 µM (≈ 145 µg/mL)
Fusarium oxysporum [23]
  MIC: 755 µM (≈ 145 µg/mL)

## COc1cc(/C=C/C(C)=O)ccc1OCC=C(C)C
Raji [24]
  inhibition (INH): 100%

## COc1cc(C(CC(C)=O)Sc2ccccc2)ccc1O (stereo not drawn)
[12]
  IC50: 6.5 µM

## O=C1O[C@H]([C@@H](O)CO)C(O)=C1O [ASCORBIC ACID]
[2]
  IC0.2: 23.7 µM

## COc1ccc(/C=C/C(=O)/C=C/c2nc3cc(O)ccc3n2C)cc1O
OVCAR-8
  Ratio IC50: 1.4

## COc1cc(/C=C/C(=O)/C=C/c2nc3cc(C)ccc3n2C)ccc1O
OVCAR-8
  Ratio IC50: 1.7

## COc1cc(/C=C/C(=O)CC(=O)C(C)c2ccc(CC(C)C)cc2)ccc1O (stereo not drawn)
Rattus norvegicus
  inhibition (INH): 76%
Mus musculus
  inhibition in vivo at 1000 µmol/kg: 59%

## CC(=O)/C=C/c1cc(O)ccc1O
[2]
  IC0.2: 4.9 µM
[25]
  Ratio: 5

## CC(=O)CCc1ccccc1 [BENZYLACETONE]
Raji [7]
  IC50: 222 molar ratio

## COc1cc(/C=C/C(=O)CC(=O)/C=C/c2ccc(O)c(OC)c2)ccc1O [CURCUMIN]
Raji [7]
  IC50: 97 molar ratio

## COc1cc(/C=C/C(=O)/C=C/c2ccc3c(c2)C(=O)N(C2CCC(=O)NC2=O)C3=O)ccc1O (stereo not drawn)
[4]
  inhibition of growth at 10 µM: ≥ 90%
[5]
  inhibition of growth at 10 µM: ≥ 90%
[6]
  inhibition of growth at 10 µM: ≥ 90%

## CC(C)Cc1ccc(C(C)C(=O)O)cc1 (stereo not drawn) [IBUPROFEN]
Rattus norvegicus
  inhibition (INH): 73%
Mus musculus
  inhibition in vivo at 1000 µmol/kg: 69%

## CC(=O)C#Cc1ccccc1 [4-PHENYL-3-BUTYN-2-ONE]
Raji [7]
  IC50: 48 molar ratio

## CCCCC/C=C/C(=O)/C=C/c1ccc(O)c(OC)c1
Spilarctia obliqua
  EC50: 3550 µg/mL (≈ 12.9 mM)

## COc1cc(/C=C/C(C)=O)ccc1OC(C)=O
[1]
  IC50: 40000 µM

## COc1cc(C(CC(C)=O)[Se]c2ccccc2)ccc1O (stereo not drawn)
[12]
  IC50: 8 µM

## COc1cccc(/C=C/C(C)=O)c1OCC=C(C)C
Raji [26]
  inhibition (INH): 80%

## COc1cc(/C=C/C(C)=O)ccc1OC1OC(COC(C)=O)C(OC(C)=O)C(OC(C)=O)C1OC(C)=O (stereo not drawn)
[1]
  IC50: 10000 µM

## Cc1c(C)c2c(c(C)c1O)CCC(C)(C(=O)O)O2 (stereo not drawn) [TROLOX]
[1]
  IC50: 260 µM

## C/C=C/c1ccc(O)c(OC)c1
Raji [27]
  inhibition (INH): 50%

## COc1cccc(/C=C/C(C)=O)c1O
Raji [7]
  IC50: 50 molar ratio

## COc1ccc(/C=C/C(=O)/C=C/c2nc3cc(C)ccc3n2C)cc1O
OVCAR-8
  Ratio IC50: 1.7
